Measured values published in publication PMC5218480 (PLoS ONE, 2017).

System: MV-4-11 cells
Assay: Gene expression microarray analysis (Affymetrix PrimeView) and GSEA
Type: cell-based, human
Set-up: RFU PODN (11730768_x_at) / Fold change /veh PODN (11730768_x_at) / RFU LINC00158 (11744669_a_at) / Fold change /veh LINC00158 (11744669_a_at) / RFU DUSP10 (11751237_a_at) / Fold change /veh DUSP10 (11751237_a_at) / RFU ID3 (11757404_x_at) / Fold change /veh ID3 (11757404_x_at) / RFU PLEKHG5 (11737974_s_at) / Fold change /veh PLEKHG5 (11737974_s_at) / RFU LRRC4B (11730491_at) / Fold change /veh LRRC4B (11730491_at) / RFU GIMAP4 (11747438_a_at) / Fold change /veh GIMAP4 (11747438_a_at) / RFU KRT8 (11758183_x_at) / Fold change /veh KRT8 (11758183_x_at) / RFU CNN1 (11734310_a_at) / Fold change /veh CNN1 (11734310_a_at) / RFU VPS37D (11726825_at) / Fold change /veh VPS37D (11726825_at) / RFU C10orf10 (11716522_x_at) / Fold change /veh C10orf10 (11716522_x_at) / RFU KIR2DL2 /// KIR2DL4 /// KIR2DL5A /// KIR2DL5B /// KIR2DS1 /// KIR2DS2 /// KIR2DS3 /// KIR2DS4 /// KIR3DL3 /// KIR3DL3 /// KIR3DS1 (11738374_at) / Fold change /veh KIR2DL2 /// KIR2DL4 /// KIR2DL5A /// KIR2DL5B /// KIR2DS1 /// KIR2DS2 /// KIR2DS3 /// KIR2DS4 /// KIR3DL3 /// KIR3DL3 /// KIR3DS1 (11738374_at) / RFU C1QL1 (11718748_at) / Fold change /veh C1QL1 (11718748_at) / RFU TMPRSS4 (11747572_a_at) / Fold change /veh TMPRSS4 (11747572_a_at) / RFU HAMP (11756126_x_at) / Fold change /veh HAMP (11756126_x_at) / RFU RNFT2 (11725882_a_at) / Fold change /veh RNFT2 (11725882_a_at) / RFU NR4A2 (11747474_a_at) / Fold change /veh NR4A2 (11747474_a_at) / RFU ABCC12 (11746883_a_at) / Fold change /veh ABCC12 (11746883_a_at) / RFU TMEM136 (11760407_x_at) / Fold change /veh TMEM136 (11760407_x_at) / RFU CLDN22 /// WWC2 (11732394_at) / Fold change /veh CLDN22 /// WWC2 (11732394_at) / RFU HLA-DPB1 (11760878_x_at) / Fold change /veh HLA-DPB1 (11760878_x_at) / RFU SPINT1 (11716480_a_at) / Fold change /veh SPINT1 (11716480_a_at) / RFU GAP43 (11754022_s_at) / Fold change /veh GAP43 (11754022_s_at) / RFU A4GNT (11735810_at) / Fold change /veh A4GNT (11735810_at) / RFU PRB3 (11715151_x_at) / Fold change /veh PRB3 (11715151_x_at) / RFU TUBB4B (11761932_at) / Fold change /veh TUBB4B (11761932_at) / RFU CAPN14 (11732068_a_at) / Fold change /veh CAPN14 (11732068_a_at) / RFU TMCC2 (11721928_a_at) / Fold change /veh TMCC2 (11721928_a_at) / RFU IRGQ (11745062_a_at) / Fold change /veh IRGQ (11745062_a_at) / RFU FAM174B (11720279_a_at) / Fold change /veh FAM174B (11720279_a_at) / RFU TMPRSS4 (11748680_a_at) / Fold change /veh TMPRSS4 (11748680_a_at) / RFU FAM212B (11763350_a_at) / Fold change /veh FAM212B (11763350_a_at) / RFU PLEKHG5 (11743358_a_at) / Fold change /veh PLEKHG5 (11743358_a_at) / RFU ZSCAN30 (11745921_a_at) / Fold change /veh ZSCAN30 (11745921_a_at) / RFU CMKLR1 (11741424_a_at) / Fold change /veh CMKLR1 (11741424_a_at) / RFU LOC101060620 /// MAPK8IP1 (11723275_at) / Fold change /veh LOC101060620 /// MAPK8IP1 (11723275_at) / RFU SPTSSB (11747773_x_at) / Fold change /veh SPTSSB (11747773_x_at) / RFU PRSS12 (11739890_at) / Fold change /veh PRSS12 (11739890_at) / RFU BIN1 (11741810_x_at) / Fold change /veh BIN1 (11741810_x_at) / RFU WNT11 (11732464_a_at) / Fold change /veh WNT11 (11732464_a_at) / RFU C10orf10 (11716521_a_at) / Fold change /veh C10orf10 (11716521_a_at) / RFU C5orf56 (11738089_at) / Fold change /veh C5orf56 (11738089_at) / RFU CYB561 (11721691_x_at) / Fold change /veh CYB561 (11721691_x_at) / RFU ANKRD19P (11752326_a_at) / Fold change /veh ANKRD19P (11752326_a_at) / RFU OR2T12 /// OR2T33 /// OR2T8 (11738714_s_at) / Fold change /veh OR2T12 /// OR2T33 /// OR2T8 (11738714_s_at) / RFU VCAN (11748164_a_at) / Fold change /veh VCAN (11748164_a_at) / RFU JSRP1 (11732532_at) / Fold change /veh JSRP1 (11732532_at) / RFU KRTAP10-11 (11738290_x_at) / Fold change /veh KRTAP10-11 (11738290_x_at) / RFU MYO3A (11730013_a_at) / Fold change /veh MYO3A (11730013_a_at) / RFU EBF3 (11725865_a_at) / Fold change /veh EBF3 (11725865_a_at) / RFU CAMK2N1 (11719241_x_at) / Fold change /veh CAMK2N1 (11719241_x_at) / RFU C5orf56 (11738088_a_at) / Fold change /veh C5orf56 (11738088_a_at) / RFU OLFML3 (11715873_a_at) / Fold change /veh OLFML3 (11715873_a_at) / RFU LOC100653217 /// NTM (11731650_a_at) / Fold change /veh LOC100653217 /// NTM (11731650_a_at) / RFU MAPK11 (11762145_a_at) / Fold change /veh MAPK11 (11762145_a_at) / RFU FIZ1 (11724087_x_at) / Fold change /veh FIZ1 (11724087_x_at) / RFU OASL (11726364_x_at) / Fold change /veh OASL (11726364_x_at) / RFU SOX15 (11748057_x_at) / Fold change /veh SOX15 (11748057_x_at) / RFU CD79A (11719716_a_at) / Fold change /veh CD79A (11719716_a_at) / RFU HIST1H1D (11736915_at) / Fold change /veh HIST1H1D (11736915_at) / RFU CASKIN2 (11723855_a_at) / Fold change /veh CASKIN2 (11723855_a_at) / RFU LOC730098 (11760151_x_at) / Fold change /veh LOC730098 (11760151_x_at) / RFU OR4N2 (11742367_at) / Fold change /veh OR4N2 (11742367_at) / RFU PRRT2 (11749266_a_at) / Fold change /veh PRRT2 (11749266_a_at) / RFU SNX32 (11753110_a_at) / Fold change /veh SNX32 (11753110_a_at) / RFU CDHR5 (11726645_a_at) / Fold change /veh CDHR5 (11726645_a_at) / RFU RCAN1 (11760418_a_at) / Fold change /veh RCAN1 (11760418_a_at) / RFU FAM167A (11723789_a_at) / Fold change /veh FAM167A (11723789_a_at) / RFU FAM26E (11764081_at) / Fold change /veh FAM26E (11764081_at) / RFU ISYNA1 (11749810_s_at) / Fold change /veh ISYNA1 (11749810_s_at) / RFU ACY1 (11761880_at) / Fold change /veh ACY1 (11761880_at) / RFU 11764098_at / Fold change /veh 11764098_at / RFU SAMD14 (11745864_x_at) / Fold change /veh SAMD14 (11745864_x_at) / RFU NPB (11741838_a_at) / Fold change /veh NPB (11741838_a_at) / RFU TMPRSS6 (11731388_a_at) / Fold change /veh TMPRSS6 (11731388_a_at) / RFU KRTAP10-2 (11738614_at) / Fold change /veh KRTAP10-2 (11738614_at) / RFU ARHGAP8 /// PRR5-ARHGAP8 (11727945_x_at) / Fold change /veh ARHGAP8 /// PRR5-ARHGAP8 (11727945_x_at) / RFU KRTAP5-7 /// NADSYN1 (11734609_at) / Fold change /veh KRTAP5-7 /// NADSYN1 (11734609_at) / RFU RASL12 (11751679_a_at) / Fold change /veh RASL12 (11751679_a_at) / RFU CDKN2B (11736163_a_at) / Fold change /veh CDKN2B (11736163_a_at) / RFU PRF1 (11729649_at) / Fold change /veh PRF1 (11729649_at) / RFU, ZNF638 /// ZNF638-IT1 / Fold change vs veh, ZNF638 /// ZNF638-IT1 / RFU, PANK3 / Fold change vs veh, PANK3 / RFU, SH3YL1 / Fold change vs veh, SH3YL1 / RFU, ZEB2 / Fold change vs veh, ZEB2 / RFU, NRIP1 / Fold change vs veh, NRIP1 / RFU, PTTG1IP / Fold change vs veh, PTTG1IP / RFU, CAPN2 / Fold change vs veh, CAPN2 / RFU, MED14 / Fold change vs veh, MED14 / RFU, SNORA58 / Fold change vs veh, SNORA58 / RFU, C1orf63 / Fold change vs veh, C1orf63 / RFU, LRRFIP1 / Fold change vs veh, LRRFIP1 / RFU, NDUFAF7 / Fold change vs veh, NDUFAF7 / RFU, SLC12A2 / Fold change vs veh, SLC12A2 / RFU, IBTK / Fold change vs veh, IBTK / RFU, ESF1 / Fold change vs veh, ESF1 / Fold change vs veh, TMEM50B / RFU, TAOK1 / Fold change vs veh, TAOK1 / RFU, ACBD3 / Fold change vs veh, ACBD3 / RFU, TMA16 / Fold change vs veh, TMA16 / RFU, RWDD3 / Fold change vs veh, RWDD3 / RFU, BCAT1 / Fold change vs veh, BCAT1 / RFU, EDEM3 / Fold change vs veh, EDEM3 / RFU, TMEM33 / Fold change vs veh, TMEM33 / RFU, WDR75 / Fold change vs veh, WDR75 / RFU, AHCTF1 / Fold change vs veh, AHCTF1 / RFU, TFRC / Fold change vs veh, TFRC / RFU, ZDHHC17 / Fold change vs veh, ZDHHC17 / RFU, NOM1 / Fold change vs veh, NOM1 / RFU, ARL8B / Fold change vs veh, ARL8B / RFU, ZBTB11 / Fold change vs veh, ZBTB11 / RFU, TAMM41 / Fold change vs veh, TAMM41 / RFU, KIAA1704 /// LOC100996395 / Fold change vs veh, KIAA1704 /// LOC100996395 / RFU, ING1 / Fold change vs veh, ING1 / RFU, TRMT61B / Fold change vs veh, TRMT61B / RFU, FUBP3 / Fold change vs veh, FUBP3 / RFU, TP53 / Fold change vs veh, TP53 / RFU, TNKS2 / Fold change vs veh, TNKS2 / RFU, ZFP14 / Fold change vs veh, ZFP14 / RFU, ACTR2 / Fold change vs veh, ACTR2 / RFU, PPP3R1 / Fold change vs veh, PPP3R1 / RFU, PIK3R1 / Fold change vs veh, PIK3R1 / RFU, HNRNPA1 / Fold change vs veh, HNRNPA1 / RFU, RNF170 / Fold change vs veh, RNF170 / RFU, ZNF28 / Fold change vs veh, ZNF28 / RFU, RNGTT / Fold change vs veh, RNGTT / RFU, OGT / Fold change vs veh, OGT / RFU, BRD1 / Fold change vs veh, BRD1 / RFU, MARS / Fold change vs veh, MARS / RFU, ZNF655 / Fold change vs veh, ZNF655 / RFU, FAHD1 / Fold change vs veh, FAHD1 / RFU, BDP1 / Fold change vs veh, BDP1 / RFU, LRRCC1 / Fold change vs veh, LRRCC1 / RFU, ARID1A / Fold change vs veh, ARID1A / RFU, ZNF146 / Fold change vs veh, ZNF146 / RFU, ZNF330 / Fold change vs veh, ZNF330 / RFU, GPN3 / Fold change vs veh, GPN3 / RFU, C9orf123 / Fold change vs veh, C9orf123 / RFU, N4BP2L2 / Fold change vs veh, N4BP2L2 / RFU, ARFIP1 / Fold change vs veh, ARFIP1 / RFU, FAM179B / Fold change vs veh, FAM179B / RFU, BCL10 / Fold change vs veh, BCL10 / RFU, UHRF1BP1L / Fold change vs veh, UHRF1BP1L / RFU, BET1 / Fold change vs veh, BET1 / RFU, CNOT2 / Fold change vs veh, CNOT2 / RFU, ZNF268 / Fold change vs veh, ZNF268 / Fold change vs veh, ZNF507 / RFU, DGCR2 / Fold change vs veh, DGCR2 / RFU, WDSUB1 / Fold change vs veh, WDSUB1 / Fold change vs veh, HSP90B1 /// MIR3652 / RFU, ADSS / Fold change vs veh, ADSS / RFU, GK / Fold change vs veh, GK / RFU, ZNF148 / Fold change vs veh, ZNF148 / RFU, TAF9 / Fold change vs veh, TAF9 / RFU, SLC1A5 / Fold change vs veh, SLC1A5 / RFU, SLMO2 / Fold change vs veh, SLMO2 / RFU, ABCC4 / Fold change vs veh, ABCC4 / RFU, LOC101060439 /// RAP1B / Fold change vs veh, LOC101060439 /// RAP1B / RFU, RFX7 / Fold change vs veh, RFX7 / RFU, GTPBP10 / Fold change vs veh, GTPBP10 / RFU, CNEP1R1 / Fold change vs veh, CNEP1R1 / RFU, BIVM-ERCC5 /// ERCC5 / Fold change vs veh, BIVM-ERCC5 /// ERCC5 / RFU, ILF3 / Fold change vs veh, ILF3 / RFU 11762660_at / Fold change /veh 11762660_at / RFU VCAN (11757783_s_at) / Fold change /veh VCAN (11757783_s_at) / RFU DDX43 (11728927_at) / Fold change /veh DDX43 (11728927_at) / RFU KRT8 (11758188_x_at) / Fold change /veh KRT8 (11758188_x_at) / RFU NKD1 (11759106_at) / Fold change /veh NKD1 (11759106_at) / RFU SRD5A1 (11742802_a_at) / Fold change /veh SRD5A1 (11742802_a_at) / RFU TPSAB1 /// TPSB2 (11721975_s_at) / Fold change /veh TPSAB1 /// TPSB2 (11721975_s_at) / RFU GSTM3 (11746129_a_at) / Fold change /veh GSTM3 (11746129_a_at) / RFU IL23R (11737362_x_at) / Fold change /veh IL23R (11737362_x_at) / RFU TMEM51 (11727254_a_at) / Fold change /veh TMEM51 (11727254_a_at) / RFU PIWIL2 (11732686_x_at) / Fold change /veh PIWIL2 (11732686_x_at) / RFU ORM1 (11744905_x_at) / Fold change /veh ORM1 (11744905_x_at) / RFU CCDC152 (11743942_at) / Fold change /veh CCDC152 (11743942_at) / RFU ECM1 (11717891_a_at) / Fold change /veh ECM1 (11717891_a_at) / RFU IL23R (11748794_a_at) / Fold change /veh IL23R (11748794_a_at) / RFU TNFAIP8L3 (11732012_x_at) / Fold change /veh TNFAIP8L3 (11732012_x_at) / RFU MBOAT4 (11741988_at) / Fold change /veh MBOAT4 (11741988_at) / RFU 11764193_at / Fold change /veh 11764193_at / RFU TMEM53 (11763286_at) / Fold change /veh TMEM53 (11763286_at) / RFU MAGEB2 (11727129_at) / Fold change /veh MAGEB2 (11727129_at) / RFU TMEM200A (11744735_a_at) / Fold change /veh TMEM200A (11744735_a_at) / RFU CCDC152 (11751479_a_at) / Fold change /veh CCDC152 (11751479_a_at) / RFU FAM211A (11726209_a_at) / Fold change /veh FAM211A (11726209_a_at) / RFU RGS16 (11746705_a_at) / Fold change /veh RGS16 (11746705_a_at) / RFU VCAN (11755009_s_at) / Fold change /veh VCAN (11755009_s_at) / RFU RHOB (11743442_s_at) / Fold change /veh RHOB (11743442_s_at) / RFU RGS16 (11720943_a_at) / Fold change /veh RGS16 (11720943_a_at) / RFU RGS16 (11720944_at) / Fold change /veh RGS16 (11720944_at) / RFU, VPS4B / Fold change vs veh, VPS4B / RFU, CREB1 / Fold change vs veh, CREB1 / RFU, DNAJC13 / Fold change vs veh, DNAJC13 / RFU, GNAQ / Fold change vs veh, GNAQ / RFU, CDK5R1 / Fold change vs veh, CDK5R1 / RFU, ZRANB3 / Fold change vs veh, ZRANB3 / RFU, CUL4A / Fold change vs veh, CUL4A / RFU, CCNY / Fold change vs veh, CCNY / RFU, UFL1 / Fold change vs veh, UFL1 / RFU, COG3 / Fold change vs veh, COG3 / RFU, DIAPH2 / Fold change vs veh, DIAPH2 / RFU, SKA2 / Fold change vs veh, SKA2 / RFU, AFF3 / Fold change vs veh, AFF3 / RFU, LMF1 / Fold change vs veh, LMF1 / RFU, IPO11 / Fold change vs veh, IPO11 / RFU, DFFB / Fold change vs veh, DFFB / RFU, FOXP1 / Fold change vs veh, FOXP1 / RFU, CARD8 / Fold change vs veh, CARD8 / RFU, STRN3 / Fold change vs veh, STRN3 / RFU, ADK / Fold change vs veh, ADK / RFU, RASSF2 / Fold change vs veh, RASSF2 / RFU, WIPF1 / Fold change vs veh, WIPF1 / RFU, LARP1B / Fold change vs veh, LARP1B / RFU, RASA1 / Fold change vs veh, RASA1 / RFU, RB1 / Fold change vs veh, RB1 / RFU, PPFIA1 / Fold change vs veh, PPFIA1 / RFU, MAT2A / Fold change vs veh, MAT2A / RFU, CCT5 / Fold change vs veh, CCT5 / RFU, WDR92 / Fold change vs veh, WDR92 / RFU, CUX1 / Fold change vs veh, CUX1 / RFU, TTC7A / Fold change vs veh, TTC7A / RFU, TMEM135 / Fold change vs veh, TMEM135 / RFU, DEPTOR / Fold change vs veh, DEPTOR / RFU, CPM / Fold change vs veh, CPM / RFU, DNAJB6 / Fold change vs veh, DNAJB6 / RFU, CACNA2D3 / Fold change vs veh, CACNA2D3 / RFU, DTX4 / Fold change vs veh, DTX4 / RFU, TFCP2 / Fold change vs veh, TFCP2 / RFU, GMCL1 /// GMCL1P1 / Fold change vs veh, GMCL1 /// GMCL1P1 / RFU, AEBP2 / Fold change vs veh, AEBP2 / RFU, SNHG1 /// SNORD22 /// SNORD25 /// SNORD26 /// SNORD27 /// SNORD28 /// SNORD29 /// SNORD31 / Fold change vs veh, SNHG1 /// SNORD22 /// SNORD25 /// SNORD26 /// SNORD27 /// SNORD28 /// SNORD29 /// SNORD31 / Fold change (Aza/veh), C12orf56 (ProbeSet 11735607_a_at) / Fold change (ACY-1035/veh), C12orf56 (ProbeSet 11735607_a_at) / Fold change (Aza/veh), FGFR1OP (ProbeSet 11751329_s_at) / Fold change (ACY-1035/veh), FGFR1OP (ProbeSet 11751329_s_at) / Fold change (Aza/veh), VPS36 (ProbeSet 11739960_a_at) / Fold change (ACY-1035/veh), VPS36 (ProbeSet 11739960_a_at) / RFU SYPL1 (11715823_x_at) / Fold change /veh SYPL1 (11715823_x_at) / RFU IGFBP7 (11715501_s_at) / Fold change /veh IGFBP7 (11715501_s_at) / RFU REEP3 (11722064_at) / Fold change /veh REEP3 (11722064_at) / RFU IGLL1 (11728026_x_at) / Fold change /veh IGLL1 (11728026_x_at): dose or concentration left out as unconfirmed
Details: MV-4-11 cells, 48 hours

Nc1ncn([C@@H]2O[C@H](CO)[C@@H](O)[C@H]2O)c(=O)n1 [azacitidine]
RFU LRRC4B (11730491_at): 28.29 RFU
